Test results from publication PMC10960024, “Diindoles produced from commensal microbiota metabolites function as endogenous CAR/Nr1i3 ligands” (Nature Communications, 2024).

How the values were obtained:
GST-hCAR-LBD = target: T1, GST-hCAR-LBD (Homo sapiens, UniProt Q14994); assay: LanthaScreen TR-FRET PGC1α coactivator recruitment assay; assay type: biochemical
T1 construct: GST-hCAR-LBD (5 nM), terbium-labeled anti-GST antibody (5 nM); purchased Invitrogen A15141
T1 sequence (Q14994 109-352 limits assumed): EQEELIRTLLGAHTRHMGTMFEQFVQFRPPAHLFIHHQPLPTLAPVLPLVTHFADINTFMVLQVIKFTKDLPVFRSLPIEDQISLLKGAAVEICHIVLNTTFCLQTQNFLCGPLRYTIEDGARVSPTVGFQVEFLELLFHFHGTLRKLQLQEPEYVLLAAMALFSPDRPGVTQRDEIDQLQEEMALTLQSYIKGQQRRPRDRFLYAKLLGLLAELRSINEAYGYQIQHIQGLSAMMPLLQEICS
Method: LanthaScreen^TM TR-FRET hCAR coactivator assays were performed according to manufacturer’s instructions (Invitrogen, A15141). Test compounds were incubated for 2 h at room temperature with GST-hCAR-LBD (5 nM), terbium-labeled anti-GST antibody (5 nM), and Fluorescein-PGC1α coactivator peptide (125 nM). Incubations were performed in four technical replicates. TR-FRET emissions were measured using a Tecan Infinite F200 Fluorescence Microplate Reader. Results were expressed as the ratio of fluorescence intensity at 520 nm (fluorescein emission excited by terbium emissions) and 495 nm (terbium emissions).

hCAR = target: T2, hCAR (Homo sapiens, UniProt Q14994); assay: Bottom-up HDX-MS of hCAR with ligand; assay type: binding; details: 100 µM ligand
T2 construct: The human CAR LBD (Lys^108 – Ser^352) was amplified by PCR from cDNA; HIS6; made in house; host or cells: E. coli BL21(DE3)
T2 sequence (Q14994 108-352): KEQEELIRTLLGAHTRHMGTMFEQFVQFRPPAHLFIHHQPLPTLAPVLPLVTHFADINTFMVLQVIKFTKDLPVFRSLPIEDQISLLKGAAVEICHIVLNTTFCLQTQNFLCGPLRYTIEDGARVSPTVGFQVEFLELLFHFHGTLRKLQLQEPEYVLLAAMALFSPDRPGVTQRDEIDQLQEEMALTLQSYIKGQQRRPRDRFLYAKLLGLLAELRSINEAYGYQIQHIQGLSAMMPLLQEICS
Method: Human CAR protein was prepared at 10 µM in 100 mM ammonium acetate pH 7.25 and diluted into either equilibration buffer (10 mM phosphate buffer, pH 7.5) or deuterated reaction buffer (10 mM phosphate buffer, 150 mM NaCl, pH 7.5 in D2O). After labeling times of 1, 10 or 30 min at 25 °C, samples were mixed with equal volumes of quench buffer (100 mM phosphate buffer, pH 2.5) at 0 °C. […] HDX-MS was performed using a commercial Waters HDX system (M-class ACQUITY UPLC and Water Cyclic IMS Mass Spectrometer). Leucine enkephalin was used for mass correction, and all time points were carried out in triplicate. Samples were digested using an Enzymate BEH Pepsin column (2.1 × 30 mm, Waters) at 15 °C. Peptides were desalted on an ACQUITY UPLC BEH C18 VanGuard Pre-column (2.1 × 5 mm, Waters) and separated using an ACQUITY UPLC BEH C18 column (100 × 1 mm, Waters). ProteinLynx Global server (PLGS) and DynamX software was used for peptide identification and deuterium uptake analysis, respectively. PyMOL 2.5 was used for structural visualization.

Q: With `CC(c1c[nH]c2ccccc12)c1c[nH]c2ccccc12` [DIE, 3,3’-diindolylethane] as the molecule, how does the PGC1α cofactor recruitment (GST-hCAR-LBD) read?
A: does not

Q: And the “deuterium uptake change, residues 235–243 (H12/AF2)” value (hCAR)?
A: increased uptake

Q: What about the “deuterium uptake difference, amino acids 217–234 (H11)” value (hCAR) of the same molecule?
A: < 10%

Q: What about the “difference in deuterium uptake compared to apo hCAR, amino acids 51–65 (H3)” value (hCAR) of the same molecule?
A: > 20%
